Data on 13 compounds can be found in PubChem BioAssay AID322 (DTP/NCI, 2004).

Several values for one entry are separate records, joined by “and”; a condition that tells them apart may be missing. Equal entries are not always repeated. Toxic doses and inconclusive results are not listed.

The test relates to CD2F1 mice, P388/ADR leukemia ip, median survival T/C. The experiment in a line: NCI In Vivo Anticancer Drug Screen. Data for tumor model P388 Leukemia resistant to Adriamycin; NSC 123127, Developed at Scr 08 (intraperitoneal) in CD2F1 (CDF1) mice. The following applies: endpoint: median survival time, higher = longer survival. The protocol: The antitumor activity of compounds was measured in mice bearing transplantable tumors. Survival or tumor size were measured and the results are expressed as the measurement made in the treated group (T) divided by the measurement made in the vehicle treated control group (C). The tumor model used in this assay is P388 Leukemia resistant to Adriamycin; NSC 123127, Developed at Scr 08 (intraperitoneal) in CD2F1 (CDF1) mice

Setting [1] is: dose: 100.0 mg/kg/injection, schedule: Q01DX005 (ip), vehicle: saline.
Where [2] appears, read: dose: 200.0 mg/kg/injection, schedule: Q01DX005 (ip), vehicle: saline.
Where [3] appears, read: dose: 50.0 mg/kg/injection, schedule: Q01DX005 (ip), vehicle: saline with Tween-80.
[4] abbreviates: dose: 100.0 mg/kg/injection, schedule: Q01DX005 (ip), vehicle: saline with Tween-80.

As for `O=CC(CO)CC(C=O)n1cnc2c(=O)[nH]cnc21` (configuration not stated), the T/C reads like this: (dose: 25.0 mg/kg/injection, schedule: Q01DX005 (ip), vehicle: saline) 122 % of control and 124 % of control; under setting [1], 151 % of control; under setting [2], 160 % of control and 170 % of control; (dose: 400.0 mg/kg/injection, schedule: Q01DX005 (ip), vehicle: saline) 169 % of control and 170 % of control.

Consider `CO[C@@]12[C@H](COC(N)=O)C3=C(C(=O)C(C)=C(N)C3=O)N1C[C@@H]1N[C@@H]12`, for which the T/C was 178 % of control (dose: 0.5 mg/kg/injection, schedule: Q01DX009 (ip), vehicle: saline with Tween-80); 198 % of control and 207 % of control (dose: 1.0 mg/kg/injection, schedule: Q01DX009 (ip), vehicle: saline with Tween-80); 110 % of control and 117 % of control (dose: 2.0 mg/kg/injection, schedule: Q01DX009 (ip), vehicle: saline with Tween-80); 151 % of control (dose: 3.6 mg/kg/injection, schedule: Q01DX001 (ip), vehicle: saline); 154 % of control (dose: 3.6 mg/kg/injection, schedule: Q01DX001 (ip), vehicle: water); 177 % of control (dose: 5.4 mg/kg/injection, schedule: Q01DX001 (ip), vehicle: saline). In addition, the T/C is, setting by setting: (dose: 5.4 mg/kg/injection, schedule: Q01DX001 (ip), vehicle: water) 162 % of control; (dose: 12.0 mg/kg/injection, schedule: Q01DX001 (ip), vehicle: saline) 117 % of control; (dose: 12.0 mg/kg/injection, schedule: Q01DX001 (ip), vehicle: water) 112 % of control.

In the case of `CN(Cc1cnc2nc(N)nc(N)c2n1)c1ccc(C(=O)N[C@@H](CCC(=O)O)C(=O)O)cc1`, the T/C runs as follows: (dose: 0.38 mg/kg/injection, schedule: Q01DX005 (ip), vehicle: sodium bicarbonate) 122 % of control; (dose: 0.75 mg/kg/injection, schedule: Q01DX005 (ip), vehicle: sodium bicarbonate) 155 % of control; (dose: 1.5 mg/kg/injection, schedule: Q01DX005 (ip), vehicle: sodium bicarbonate) 179 % of control; (dose: 3.0 mg/kg/injection, schedule: Q01DX005 (ip), vehicle: sodium bicarbonate) 191 % of control and 195 % of control.

Consider `O=NNc1cnccn1`, for which the T/C reads like this: (dose: 11.0 mg/kg/injection, schedule: Q01DX009 (ip), vehicle: water) 165 % of control and 171 % of control; (dose: 17.0 mg/kg/injection, schedule: Q01DX009 (ip), vehicle: water) 201 % of control and 206 % of control; (dose: 25.0 mg/kg/injection, schedule: Q01DX009 (ip), vehicle: water) 240 % of control and 246 % of control; (dose: 37.5 mg/kg/injection, schedule: Q01DX009 (ip), vehicle: water) 277 % of control and 313 % of control; (dose: 56.0 mg/kg/injection, schedule: Q01DX009 (ip), vehicle: water) 107 % of control and 117 % of control.

With `COc1cc(NS(C)(=O)=O)ccc1Nc1c2ccccc2nc2ccccc12`, the T/C reads like this: (dose: 1.25 mg/kg/injection, schedule: Q04DX003 (ip), vehicle: other) 102 % of control; (dose: 2.5 mg/kg/injection, schedule: Q04DX003 (ip), vehicle: other) 109 % of control; (dose: 2.59 mg/kg/injection, schedule: Q04DX003 (ip), vehicle: other) 107 % of control; (dose: 4.32 mg/kg/injection, schedule: Q04DX003 (ip), vehicle: other) 107 % of control; (dose: 5.0 mg/kg/injection, schedule: Q04DX003 (ip), vehicle: other) 109 % of control; (dose: 7.2 mg/kg/injection, schedule: Q04DX003 (ip), vehicle: other) 104 % of control. For the same compound, the T/C reads like this: (dose: 10.0 mg/kg/injection, schedule: Q04DX003 (ip), vehicle: other) 109 % of control; (dose: 12.0 mg/kg/injection, schedule: Q04DX003 (ip), vehicle: other) 106 % of control; (dose: 20.0 mg/kg/injection, schedule: Q04DX003 (ip), vehicle: other) 105 % of control and 113 % of control.

In the case of `CCN(CC)CCn1[nH]c2c3ccc(=O)cc3sc3c(NCCN)ccc1c32`, the T/C is, setting by setting: (dose: 1.56 mg/kg/injection, schedule: Q01DX005 (ip), vehicle: water) 99 % of control; (dose: 3.12 mg/kg/injection, schedule: Q01DX005 (ip), vehicle: water) 95 % of control; (dose: 6.25 mg/kg/injection, schedule: Q01DX005 (ip), vehicle: water) 106 % of control; (dose: 12.5 mg/kg/injection, schedule: Q01DX005 (ip), vehicle: water) 91 % of control.

Consider `O=[N+]([O-])c1ccc(N(CCO)CCO)c2c1no[n+]2[O-]`, for which the T/C was 114 % of control (dose: 3.12 mg/kg/injection, schedule: Q01DX005 (ip), vehicle: saline with Tween-80) and 124 % of control (dose: 6.25 mg/kg/injection, schedule: Q01DX005 (ip), vehicle: saline with Tween-80).

As for `O=C(O)CCCc1ccc(N(CCCl)CCCl)cc1`, the T/C (dose: 1.25 mg/kg/injection, schedule: Q01DX005 (ip), vehicle: saline with Tween-80) was 120 % of control and the T/C (dose: 10.0 mg/kg/injection, schedule: Q01DX005 (ip), vehicle: saline with Tween-80) was 205 % of control.

In the case of `Nc1ncn(C2OC(CO)C(O)C2O)c(=O)n1` (configuration not stated), the T/C (dose: 30.0 mg/kg/injection, schedule: Q01DX009 (ip), vehicle: saline) was 232 % of control and 246 % of control; the T/C (dose: 44.0 mg/kg/injection, schedule: Q01DX005 (ip), vehicle: saline) was 183 % of control; the T/C (dose: 44.0 mg/kg/injection, schedule: Q01DX009 (ip), vehicle: saline) was 248 % of control and 261 % of control; the T/C (dose: 67.0 mg/kg/injection, schedule: Q01DX005 (ip), vehicle: saline) is 189 % of control; the T/C (dose: 67.0 mg/kg/injection, schedule: Q01DX009 (ip), vehicle: saline) is 253 % of control and 280 % of control; the T/C under setting [1] is 210 % of control. The T/C (dose: 100.0 mg/kg/injection, schedule: Q01DX009 (ip), vehicle: saline) was 263 % of control and 270 % of control; the T/C (dose: 150.0 mg/kg/injection, schedule: Q01DX005 (ip), vehicle: saline) was 206 % of control; the T/C (dose: 150.0 mg/kg/injection, schedule: Q01DX009 (ip), vehicle: saline) was 277 % of control and 296 % of control; the T/C under setting [2] is 207 % of control.

On to `O=C(Oc1ccccc1)c1cc(O)c(O)c(O)c1`, for which the T/C runs as follows: (dose: 25.0 mg/kg/injection, schedule: Q01DX005 (ip), vehicle: saline with Tween-80) 102 % of control; under setting [3], 98 % of control; under setting [4], 99 % of control; (dose: 200.0 mg/kg/injection, schedule: Q01DX005 (ip), vehicle: saline with Tween-80) 112 % of control.

Consider `O=C1NC2(CCCCC2)C(=O)N1CCN(CCCl)CCCl`, for which the T/C (dose: 2.6 mg/kg/injection, schedule: Q01DX009 (ip), vehicle: Klucel (hydroxypropylcellulose) (HPC)) is 195 % of control; the T/C (dose: 4.0 mg/kg/injection, schedule: Q01DX009 (ip), vehicle: Klucel (hydroxypropylcellulose) (HPC)) is 236 % of control; the T/C (dose: 6.0 mg/kg/injection, schedule: Q01DX009 (ip), vehicle: Klucel (hydroxypropylcellulose) (HPC)) is 226 % of control; the T/C (dose: 9.0 mg/kg/injection, schedule: Q01DX009 (ip), vehicle: Klucel (hydroxypropylcellulose) (HPC)) was 239 % of control.

As for `BrC[P+](CBr)(CBr)CBr`, the T/C runs as follows: under setting [3], 109 % of control and 119 % of control; under setting [4], 115 % of control; (dose: 144.0 mg/kg/injection, schedule: Q01DX005 (ip), vehicle: saline with Tween-80) 111 % of control; (dose: 240.0 mg/kg/injection, schedule: Q01DX005 (ip), vehicle: saline with Tween-80) 112 % of control; (dose: 666.67 mg/kg/injection, schedule: Q01DX005 (ip), vehicle: saline with Tween-80) 166 % of control.

On to `COc1ccc2[nH]c3ccc4cc[n+](CCN5CCC(C6CCN(CC[n+]7ccc8ccc9[nH]c%10ccc(OC)cc%10c9c8c7)CC6)CC5)cc4c3c2c1`, for which the T/C reads like this: (dose: 2.0 mg/kg/injection, schedule: Q01DX005 (ip), vehicle: water) 119 % of control; (dose: 4.0 mg/kg/injection, schedule: Q01DX005 (ip), vehicle: water) 123 % of control; (dose: 8.0 mg/kg/injection, schedule: Q01DX005 (ip), vehicle: water) 152 % of control; (dose: 16.0 mg/kg/injection, schedule: Q01DX005 (ip), vehicle: water) 158 % of control; (dose: 32.0 mg/kg/injection, schedule: Q01DX005 (ip), vehicle: water) 163 % of control.
